According to ChEMBL document CHEMBL3352710, “Endoperoxide polyketides from a Chinese Plakortis simplex: further evidence of the impact of stereochemistry on antimalarial activity of simple 1,2-dioxanes” (Bioorg Med Chem, 2014):

Legend:
Plasmodium falciparum [1] = assay: Antimalarial activity against chloroquine-resistant Plasmodium falciparum W2 after 72 hrs by lactate dehydrogenase assay; assay type: functional, organism-based; settings: W2, 72 h
Plasmodium falciparum [2] = assay: Antimalarial activity against chloroquine-sensitive Plasmodium falciparum D10 after 72 hrs by lactate dehydrogenase assay; assay type: functional
[3] = Plasmodium falciparum, D10, 72 h, read-out: IC50

Row | Compound | IC50 (Plasmodium falciparum [1]) | IC50 (Plasmodium falciparum [2]; [3]) | IC50 (Plasmodium falciparum [2])
1 | CC/C=C/[C@H](CC)C[C@]1(CC)C=C(CC)[C@H](CC(=O)OC)OO1 | 2.91 µM | 3.89 µM | 
2 | CCCC[C@H](CC)C[C@]1(CC)C=C(CC)[C@H](CC(=O)OC)OO1 | 2.7 µM | 4.05 µM | 
3 | CCCC[C@H](C)C[C@]1(CC)C=C(CC)[C@H](CC(=O)OC)OO1 | 1.56 µM | 1.77 µM | 
4 | CCCC[C@H](CC)C[C@@]1(CC)C[C@H](CC)[C@H](CC(=O)OC)OO1 | 4.98 µM | 6.18 µM | 
5 | CCCC[C@H](CC)C[C@@]1(CC)C[C@H](CC)[C@@H](CC(=O)OC)OO1 | 11.4 µM |  | Not Active
6 | CCCCC(C)C[C@H](CC)C[C@@]1(C)C[C@H](CC)[C@@H](CC(=O)OC)OO1 (stereo not given in full) | 4.1 µM | 5.12 µM | 
7 | CCCC[C@H](CC)C[C@@]1(C)C[C@@H](CC)[C@@H](CC(=O)OC)OO1 | 0.43 µM | 0.9 µM | 
8 | C[C@@H]1CC[C@H]2[C@@H](C)C(=O)O[C@@H]3O[C@@]4(C)CC[C@@H]1[C@]32OO4 [ARTEMISININ] | 0.009 µM |  | 
